Laboratory results as given in PubChem BioAssay (NCI).
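A five-concentration, 48-hour dose response in 96-well plates underlies each endpoint, interpolated linearly between surrounding concentrations. The concentration for 50% growth inhibition is given as GI50. At the TGI there is no net growth.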

Legend:
Test in all cases: inhibition of tumour cell growth, NCI panel, 48 h
786-0 renal = tested on: 786-0 renal
A498 renal = tested on: A498 renal
ACHN renal = tested on: ACHN renal
BT-549 breast = tested on: BT-549 breast
COLO 205 colon = tested on: COLO 205 colon
DU-145 prostate = tested on: DU-145 prostate
EKVX NSCLC = tested on: EKVX NSCLC
HCC-2998 colon = tested on: HCC-2998 colon
HCT-116 colon = tested on: HCT-116 colon
HCT-15 colon = tested on: HCT-15 colon
HOP-62 NSCLC = tested on: HOP-62 NSCLC
HOP-92 NSCLC = tested on: HOP-92 NSCLC
HS 578T breast = tested on: HS 578T breast
HT29 colon = tested on: HT29 colon
IGROV1 ovarian = tested on: IGROV1 ovarian
KM12 colon = tested on: KM12 colon
LOX IMVI melanoma = tested on: LOX IMVI melanoma
M14 melanoma = tested on: M14 melanoma
MCF7 breast = tested on: MCF7 breast
MDA-MB-231 breast = tested on: MDA-MB-231 breast
MOLT-4 leukemia = tested on: MOLT-4 leukemia
NCI-H226 lung = tested on: NCI-H226 lung
NCI-H23 lung = tested on: NCI-H23 lung
NCI-H522 lung = tested on: NCI-H522 lung
NCI/ADR-RES ovarian = tested on: NCI/ADR-RES ovarian
OVCAR-3 ovarian = tested on: OVCAR-3 ovarian
OVCAR-5 ovarian = tested on: OVCAR-5 ovarian
OVCAR-8 ovarian = tested on: OVCAR-8 ovarian
PC-3 prostate = tested on: PC-3 prostate
RPMI-8226 leukemia = tested on: RPMI-8226 leukemia
RXF 393 renal = tested on: RXF 393 renal
SF-268 CNS = tested on: SF-268 CNS
SF-295 CNS = tested on: SF-295 CNS
SF-539 CNS = tested on: SF-539 CNS
SK-MEL-2 melanoma = tested on: SK-MEL-2 melanoma
SK-MEL-28 melanoma = tested on: SK-MEL-28 melanoma
SK-MEL-5 melanoma = tested on: SK-MEL-5 melanoma
SK-OV-3 ovarian = tested on: SK-OV-3 ovarian
SN12C renal = tested on: SN12C renal
SNB-19 CNS = tested on: SNB-19 CNS
SNB-75 CNS = tested on: SNB-75 CNS
T-47D breast = tested on: T-47D breast
TK-10 renal = tested on: TK-10 renal
U251 CNS = tested on: U251 CNS
UACC-257 melanoma = tested on: UACC-257 melanoma
UACC-62 melanoma = tested on: UACC-62 melanoma
UO-31 renal = tested on: UO-31 renal
A549 NSCLC = tested on: A549 NSCLC
CAKI-1 renal = tested on: CAKI-1 renal
K-562 leukemia = tested on: K-562 leukemia
MDA-MB-435 = tested on: MDA-MB-435
OVCAR-4 ovarian = tested on: OVCAR-4 ovarian
SW-620 colon = tested on: SW-620 colon

Compound `O=C(CSc1nc2c(n1Nc1ccccc1)-c1ccccc1SC2)Nc1nc(-c2ccc(Cl)cc2)cs1` has a GI50 (786-0 renal) of 12.7 µM, a TGI (786-0 renal) of 34.8 µM and a GI50 (A498 renal) of 6.44 µM. The TGI (A498 renal) was 32.8 µM, the GI50 (ACHN renal) was 35.4 µM and the TGI (ACHN renal) was over 100 µM. For the same compound, the GI50 (BT-549 breast) was 33.5 µM, the TGI (BT-549 breast) was over 100 µM and the GI50 (COLO 205 colon) was 4.1 µM. The TGI (COLO 205 colon) was over 100 µM, the GI50 (DU-145 prostate) was over 100 µM and the TGI (DU-145 prostate) was over 100 µM. For the same compound, the GI50 (EKVX NSCLC) was 23.6 µM, the TGI (EKVX NSCLC) was over 100 µM and the GI50 (HCC-2998 colon) was over 100 µM. It also gave a TGI (HCC-2998 colon) of over 100 µM, a GI50 (HCT-116 colon) of 6.37 µM and a TGI (HCT-116 colon) of over 100 µM. For the same compound, the GI50 (HCT-15 colon) was over 100 µM, the TGI (HCT-15 colon) was over 100 µM and the GI50 (HOP-62 NSCLC) was 14 µM. It also gave a TGI (HOP-62 NSCLC) of 34 µM, a GI50 (HOP-92 NSCLC) of 11.6 µM and a TGI (HOP-92 NSCLC) of 71 µM. For the same compound, the GI50 (HS 578T breast) was 6.35 µM, the TGI (HS 578T breast) was 78.7 µM and the GI50 (HT29 colon) was over 100 µM. For the same compound, the TGI (HT29 colon) was over 100 µM, the GI50 (IGROV1 ovarian) was 12.5 µM and the TGI (IGROV1 ovarian) was 78.2 µM. It also gave a GI50 (KM12 colon) of over 100 µM, a TGI (KM12 colon) of over 100 µM and a GI50 (LOX IMVI melanoma) of over 100 µM. The TGI (LOX IMVI melanoma) was over 100 µM, the GI50 (M14 melanoma) was over 100 µM and the TGI (M14 melanoma) was over 100 µM. It also gave a GI50 (MCF7 breast) of over 100 µM, a TGI (MCF7 breast) of over 100 µM and a GI50 (MDA-MB-231 breast) of 33.3 µM. The TGI (MDA-MB-231 breast) was over 100 µM, the GI50 (MOLT-4 leukemia) was over 100 µM and the TGI (MOLT-4 leukemia) was over 100 µM. The GI50 (NCI-H226 lung) was 29.9 µM, the TGI (NCI-H226 lung) was over 100 µM and the GI50 (NCI-H23 lung) was 6.48 µM. It also gave a TGI (NCI-H23 lung) of 97.1 µM, a GI50 (NCI-H522 lung) of 5.73 µM and a TGI (NCI-H522 lung) of over 100 µM. It also gave a GI50 (NCI/ADR-RES ovarian) of 25.5 µM, a TGI (NCI/ADR-RES ovarian) of over 100 µM and a GI50 (OVCAR-3 ovarian) of 7.34 µM. The TGI (OVCAR-3 ovarian) was over 100 µM, the GI50 (OVCAR-5 ovarian) was over 100 µM and the TGI (OVCAR-5 ovarian) was over 100 µM. For the same compound, the GI50 (OVCAR-8 ovarian) was 6.42 µM, the TGI (OVCAR-8 ovarian) was over 100 µM and the GI50 (PC-3 prostate) was over 100 µM. It also gave a TGI (PC-3 prostate) of over 100 µM, a GI50 (RPMI-8226 leukemia) of over 100 µM and a TGI (RPMI-8226 leukemia) of over 100 µM. It also gave a GI50 (RXF 393 renal) of 15.8 µM, a TGI (RXF 393 renal) of 43.4 µM and a GI50 (SF-268 CNS) of 10.8 µM. The TGI (SF-268 CNS) was over 100 µM, the GI50 (SF-295 CNS) was 11.3 µM and the TGI (SF-295 CNS) was 33.5 µM. The GI50 (SF-539 CNS) was 25.8 µM, the TGI (SF-539 CNS) was over 100 µM and the GI50 (SK-MEL-2 melanoma) was 37.2 µM. For the same compound, the TGI (SK-MEL-2 melanoma) was over 100 µM, the GI50 (SK-MEL-28 melanoma) was over 100 µM and the TGI (SK-MEL-28 melanoma) was over 100 µM. The GI50 (SK-MEL-5 melanoma) was over 100 µM, the TGI (SK-MEL-5 melanoma) was over 100 µM and the GI50 (SK-OV-3 ovarian) was 11.8 µM. It also gave a TGI (SK-OV-3 ovarian) of 29.5 µM, a GI50 (SN12C renal) of over 100 µM and a TGI (SN12C renal) of over 100 µM. For the same compound, the GI50 (SNB-19 CNS) was 15.3 µM, the TGI (SNB-19 CNS) was 63.5 µM and the GI50 (SNB-75 CNS) was 9.23 µM. For the same compound, the TGI (SNB-75 CNS) was 23.8 µM, the GI50 (T-47D breast) was 26.6 µM and the TGI (T-47D breast) was over 100 µM. It also gave a GI50 (TK-10 renal) of 22.9 µM, a TGI (TK-10 renal) of 58.9 µM and a GI50 (U251 CNS) of 9.91 µM. The TGI (U251 CNS) was 88.2 µM, the GI50 (UACC-257 melanoma) was over 100 µM and the TGI (UACC-257 melanoma) was over 100 µM. For the same compound, the GI50 (UACC-62 melanoma) was 13.5 µM, the TGI (UACC-62 melanoma) was over 100 µM and the GI50 (UO-31 renal) was over 100 µM. For the same compound, the TGI (UO-31 renal) was over 100 µM.
Compound `CC1=C(C#N)C(=C(C#N)C#N)OC1(C)Cc1ccccc1` (configuration not stated) has a TGI (786-0 renal) of over 100 µM, a TGI (A498 renal) of over 100 µM and a TGI (A549 NSCLC) of over 100 µM. The TGI (ACHN renal) was 32.7 µM, the TGI (BT-549 breast) was over 100 µM and the TGI (CAKI-1 renal) was 50.9 µM. The TGI (COLO 205 colon) was 43 µM, the TGI (DU-145 prostate) was over 100 µM and the TGI (EKVX NSCLC) was over 100 µM. The TGI (HCC-2998 colon) was 89.6 µM, the TGI (HCT-116 colon) was over 100 µM and the TGI (HCT-15 colon) was 83 µM. For the same compound, the TGI (HOP-62 NSCLC) was over 100 µM, the TGI (HOP-92 NSCLC) was 38.6 µM and the TGI (HS 578T breast) was over 100 µM. It also gave a TGI (HT29 colon) of 78.6 µM, a TGI (IGROV1 ovarian) of over 100 µM and a TGI (K-562 leukemia) of over 100 µM. It also gave a TGI (KM12 colon) of over 100 µM, a TGI (LOX IMVI melanoma) of 41 µM and a TGI (M14 melanoma) of over 100 µM. For the same compound, the TGI (MCF7 breast) was over 100 µM, the TGI (MDA-MB-231 breast) was over 100 µM and the TGI (MDA-MB-435) was over 100 µM. For the same compound, the TGI (MOLT-4 leukemia) was 67.3 µM, the TGI (NCI-H226 lung) was 59.3 µM and the TGI (NCI-H23 lung) was over 100 µM. The TGI (NCI-H522 lung) was 36.8 µM, the TGI (NCI/ADR-RES ovarian) was over 100 µM and the TGI (OVCAR-3 ovarian) was 74.9 µM. It also gave a TGI (OVCAR-4 ovarian) of 60.3 µM, a TGI (OVCAR-5 ovarian) of over 100 µM and a TGI (OVCAR-8 ovarian) of over 100 µM. The TGI (PC-3 prostate) was over 100 µM, the TGI (RPMI-8226 leukemia) was 96.8 µM and the TGI (RXF 393 renal) was 37.6 µM. For the same compound, the TGI (SF-268 CNS) was over 100 µM, the TGI (SF-295 CNS) was over 100 µM and the TGI (SF-539 CNS) was over 100 µM. The TGI (SK-MEL-2 melanoma) was over 100 µM, the TGI (SK-MEL-28 melanoma) was over 100 µM and the TGI (SK-MEL-5 melanoma) was over 100 µM. It also gave a TGI (SK-OV-3 ovarian) of over 100 µM, a TGI (SN12C renal) of over 100 µM and a TGI (SNB-19 CNS) of over 100 µM. The TGI (SNB-75 CNS) was over 100 µM, the TGI (SW-620 colon) was over 100 µM and the TGI (T-47D breast) was 85.6 µM. It also gave a TGI (TK-10 renal) of over 100 µM, a TGI (U251 CNS) of over 100 µM and a TGI (UACC-257 melanoma) of over 100 µM. For the same compound, the TGI (UACC-62 melanoma) was 50.4 µM and the TGI (UO-31 renal) was 37 µM.
